For 3 compounds, Minimum inhibitory concentration and MIC results are on record in patent EP0021678B1, “1-Sulpho-2-oxoazetidine derivatives, their production and pharmaceutical compositions thereof” (Takeda Chemical Industries, Ltd., priority 1979, dated 1981).

Each structure is given as a SMILES string. Like-named read-outs stand apart in the source and are kept apart here.

Assay in all cases: Anti-bacterial test, minimum inhibitory concentration on agar
Common to all, as to type: cell-based

Experiment [1] relates to Escherichia coli NIHJ JC—2. The conditions noted are these: Escherichia coli NIHJ JC—2, medium TSA; for MIC: read-out: Minimum inhibitory concentration. The source says: (§1) The compound (I) thus obtained is useful as a drug, being active against certain gram-positive and gram-negative bacteria. By way of example, the compounds are active against the following micro-organisms.
(§2) The media and compounds employed in the anti-bacterial test are as follows: • Media: • TSA = Trypticase soy agar • [Baltimore Biologicals (U.S.A.)] • B-TSA = Blood trypticase soy agar • Compounds: • Compound A = Sodium 3-[2-(2-amino-4-thiazolyl)-2-methoxyiminoacetamido]-2-oxo-azetidine-1-sulphonate • Compound B = Sodium 3-[D(-)-N-(4-ethyl-2,3-dioxo-1-piperazinocarbonyl)-phenyl-glycin- amido]-2-oxoazetidine-1-sulphonate • Compound C = Sodium 3-[D(-)-N-(4-ethyl-2,3-dioxo-1-piperazinocarbonyl)phenylglycinamido]-3-methoxy-2-oxoazetidine-1-sulphonate • Compound D = Sodium 3-[2-(4-ethyl-2,3-dioxo-1-piperazinocarboxamido)-2-(2-amino-4-thiazolyl)-acetamido]-2-oxoazetidine-1-sulphonate • Compound E = Sodium 3-[DL-2-(4-ethyl-2,3-dioxo-1-piperazinocarboxamido)-2-thienylacetamido]-2-oxoazetidine-1-sulphonate • Compound F = Sodium 3-[D-2-(4-ethyl-2,3-dioxo-1-piperazinocarboxamido)-2-thienylacetamido]-2-oxoazetidine-1-sulphonate • Compound G = Sodium 3-[D-2-(4-n-octyl-2,3-dioxo-1-piperazinocarboxamido)-2-phenylacetamido]-2-oxoazetidine-1-sulphonate • Compound H = Sodium 3-[2-(4-n-octyl-2,3-dioxo-1-piperazinocarboxamido)-2-(2-amino-4-thiazolyl)-acetamido]-2-oxoazetidine-1-sulphonate • Compound I = Sodium 3-[D-2-[(2-oxo-3-furfurylideneaminoimidazolidin-1-yl)-carboxamido]-2-phenylacetamido]-2-oxoazetidine-1-sulphonate • Compound J = Sodium 3-[2-(4-n-octyl-2,3-dioxo-1-piperazinocarboxamido)-2-thienylacetamido]-2-oxoazetidine-1-sulphonate • Compound K = Sodium 3-[D-2-[[2-oxo-3-(thiophen-2-aidoimino)-imidazolidin-1-yl]-carboxamido]-2-phenylacetamido]-2-oxoazetidine-1-sulphonate • Compound L = Sodium 3-[2-[(2-oxo-3-furfurylideneaminoimidazolidin-1-yl)-carboxamido]-2-thienylacetamido]-2-oxoazetidine-1-sulphonate

The subject of experiment [2] is Escherichia coli T-7.
Excerpt: as §1, §2

The subject of experiment [3] is Candida albicans TA. The conditions noted are these: Candida albicans TA, medium TSA; for MIC: read-out: Minimum inhibitory concentration.
Excerpt: as §1, §2

Experiment [4] concerns Staphylococcus aureus FDA209P. The conditions noted are these: Staphylococcus aureus FDA209P; for MIC: Staphylococcus aureus, FDA209P, read-out: Minimum inhibitory concentration.
Excerpt: as §1, §2

Experiment [5] has as its system Klebsiella pneumoniae DT. The settings on record: for MIC: read-out: Minimum inhibitory concentration.
Excerpt: as §1, §2

In experiment [6] the test system is Streptococcus pyogenes S—8. The conditions noted are these: Streptococcus pyogenes S—8, medium B—TSA; for MIC: read-out: Minimum inhibitory concentration.
Excerpt: as §1, §2

The subject of experiment [7] is Enterobacter cloacae IFO 12937. The settings on record: Enterobacter cloacae IFO 12937, medium TSA; for MIC: IFO12937, read-out: Minimum inhibitory concentration.
Excerpt: as §1, §2

The test system of experiment [8] is Streptococcus mitis America.
Excerpt: as §1, §2

Experiment [9] has as its system Streptococcus faecium IFO 3128. The conditions noted are these: Streptococcus faecium IFO 3128, medium B—TSA.
Excerpt: as §1, §2

Experiment [10] relates to Pseudomonas aeruginosa IFO 3455.
Excerpt: as §1, §2

Experiment [11] relates to Serratia marcescens IFO 12648. The settings on record: Serratia marcescens IFO 12648, medium TSA; for MIC: IFO12648, read-out: Minimum inhibitory concentration.
Excerpt: as §1, §2

Experiment [12] deals with Citrobacter freundii IFO 12681. The settings on record: Citrobacter freundii IFO 12681, medium TSA.
Excerpt: as §1, §2

Experiment [13] concerns Staphylococcus aureus 1840. The settings on record: Staphylococcus aureus 1840, medium TSA.
Excerpt: as §1, §2

Experiment [14] has as its system Proteus morganii IFO 3168. The conditions noted are these: Proteus morganii IFO 3168, medium TSA; for MIC: Morganella morganii, IFO3168, read-out: Minimum inhibitory concentration.
Excerpt: as §1, §2

The test system of experiment [15] is Pseudomonas aeruginosa U 31. The settings on record: Pseudomonas aeruginosa U 31, medium TSA; for MIC: U31, read-out: Minimum inhibitory concentration.
Excerpt: as §1, §2

Experiment [16] concerns Corynebacterium diphtheriae Toronto. The conditions noted are these: Corynebacterium diphtheriae Toronto, medium B—TSA; for MIC: read-out: Minimum inhibitory concentration.
Excerpt: as §1, §2

Experiment [17] relates to Proteus vulgaris IFO 3988.
Excerpt: as §1, §2

Experiment [18] concerns Acinetobacter calcoaceticus IFO 13006. The conditions noted are these: Acinetobacter calcoaceticus IFO 13006, medium TSA.
Excerpt: as §1, §2

The test system of experiment [19] is Bordetella bronchiseptica Sagami. The conditions noted are these: Bordetella bronchiseptica Sagami, medium B—TSA.
Excerpt: as §1, §2

The subject of experiment [20] is Streptococcus pneumoniae Type I. The conditions noted are these: Streptococcus pneumoniae Type I, medium B—TSA.
Excerpt: as §1, §2

For experiment [21], the system named is Proteus mirabilis IFO 3849. The conditions noted are these: Proteus mirabilis IFO 3849, medium TSA; for MIC: IFO3849, read-out: Minimum inhibitory concentration.
Excerpt: as §1, §2

Experiment [22] concerns Streptococcus pyogenes E—14. The settings on record: Streptococcus pyogenes E—14, medium B—TSA; for MIC: read-out: Minimum inhibitory concentration.
Excerpt: as §1, §2

The subject of experiment [23] is Staphylococcus aureus 308A—1.
Excerpt: as §1, §2

The test system of experiment [24] is Escherichia coli O—111. The settings on record: medium TSA.
Excerpt: as §1, §2

Where [25] appears, read: Klebsiella pneumoniae DT, medium TSA.
The mark [26] stands for this setting: read-out: Minimum inhibitory concentration.

Take `CCCCCCCCN1CCN(C(=O)NC(C(=O)NC2CN(S(=O)(=O)[O-])C2=O)c2cccs2)C(=O)C1=O.[Na+]` (stereo not drawn) [Compound J, Sodium 3-[2-(4-n-octyl-2,3-dioxo-1-piperazinocarboxamido)-2-thienylacetamido]-2-oxoazetidine-1-sulphonate]: the Minimum inhibitory concentration is 3.13 µg/mL in [1]; more than 100 µg/mL in experiment [2] (medium TSA); more than 100 µg/mL in experiment [3]; 3.13 µg/mL in experiment [4] (medium B—TSA); 1.56 µg/mL in [4] (medium TSA); 1.56 µg/mL in experiment [5] (setting [25]). Also, the Minimum inhibitory concentration was 1.56 µg/mL in experiment [6]; 6.25 µg/mL in experiment [7]; 25 µg/mL in [8] (Streptococcus mitis America, medium B—TSA); more than 100 µg/mL in experiment [9]; 6.25 µg/mL in experiment [10] (Pseudomonas aeruginosa IFO 3455, medium TSA); 1.56 µg/mL in [11]. In addition, the Minimum inhibitory concentration was 3.13 µg/mL in [12]; 6.25 µg/mL in experiment [13]; 1.56 µg/mL in experiment [14]; 25 µg/mL in [15]; 0.78 µg/mL in experiment [16]; 1.56 µg/mL in [17] (Proteus vulgaris IFO 3988, medium TSA). For the same compound, the Minimum inhibitory concentration is 6.25 µg/mL in [18]; more than 100 µg/mL in experiment [19]; 1.56 µg/mL in [20]; 3.13 µg/mL in experiment [21]; 1.56 µg/mL in experiment [22]; 1.56 µg/mL in experiment [23] (Staphylococcus aureus 308A—1, medium TSA).

As to `O=C(NC1CN(S(=O)(=O)O)C1=O)[C@H](NC(=O)N1CCN(N=Cc2ccco2)C1=O)c1ccccc1` (stereo partly drawn) [Compound I, Sodium 3-[D-2-[(2-oxo-3-furfurylideneaminoimidazolidin-1-yl)-carboxamido]-2-phenylacetamido]-2-oxoazetidine-1-sulphonate], the MIC in [1] is 1.56 µg/mL; in [2] (T7, medium TSA), more than 100 µg/mL; in experiment [3], more than 100 µg/mL; in experiment [4] (medium B—TSA), 6.25 µg/mL; in experiment [4] (medium TSA) it was 6.25 µg/mL; in [5] (setting [25]), 0.2 µg/mL. Also, the MIC in experiment [6] was 0.78 µg/mL; in [7], 25 µg/mL; in experiment [8] (Streptococcus mitis, read-out: Minimum inhibitory concentration), 3.13 µg/mL; in experiment [9] (Enterococcus faecium, IFO3128, read-out: Minimum inhibitory concentration) it was more than 100 µg/mL; in [10] (Pseudomonas aeruginosa, IFO3455, read-out: Minimum inhibitory concentration) it was 3.13 µg/mL; in [11], 1.56 µg/mL. The MIC in experiment [12] (IFO12681, read-out: Minimum inhibitory concentration) is 6.25 µg/mL; in experiment [13] (setting [26]), 50 µg/mL; in experiment [14], 12.5 µg/mL; in [15] it was more than 100 µg/mL; in experiment [16], 0.78 µg/mL; in experiment [17] (IFO3988, Proteus vulgaris IFO 3988, medium TSA, read-out: Minimum inhibitory concentration), 0.2 µg/mL. The MIC in [18] (IFO13006, read-out: Minimum inhibitory concentration) is 25 µg/mL; in experiment [19] (setting [26]), more than 100 µg/mL; in experiment [20] (setting [26]) it was 1.56 µg/mL; in experiment [21] it was 1.56 µg/mL; in experiment [22], 0.39 µg/mL; in [23] (Staphylococcus aureus, read-out: Minimum inhibitory concentration) it was 3.13 µg/mL. In addition, the MIC in [24] was determined as 3.13 µg/mL.

In the case of `CCN1CCN(C(=O)N[C@@H](C(=O)NC2(OC)CN(S(=O)(=O)O)C2=O)c2ccccc2)C(=O)C1=O` (single isomer, unassigned) [Compound C, Sodium 3-[D(-)-N-(4-ethyl-2,3-dioxo-1-piperazinocarbonyl)phenylglycinamido]-3-methoxy-2-oxoazetidine-1-sulphonate], the MIC was 50 µg/mL in experiment [1]; more than 100 µg/mL in experiment [3]; 100 µg/mL in experiment [4] (medium TSA); 12.5 µg/mL in experiment [5] (Klebsiella pneumoniae); 50 µg/mL in [6]; more than 100 µg/mL in experiment [7]. Besides, the MIC was 50 µg/mL in experiment [11]; more than 100 µg/mL in experiment [14]; more than 100 µg/mL in experiment [15]; 50 µg/mL in experiment [16]; 12.5 µg/mL in experiment [17] (Proteus vulgaris, IFO3988, read-out: Minimum inhibitory concentration); 50 µg/mL in [21]. The MIC in [22] amounted to 50 µg/mL; in experiment [24], 12.5 µg/mL.
